Data as given in PMC9861180, “Nintedanib-αVβ6 Integrin Ligand Conjugates Reduce TGFβ-Induced EMT in Human Non-Small Cell Lung Cancer” (International Journal of Molecular Sciences, 2023).
Entries after “also recorded” stand apart in the source; their conditions may differ.

What was measured:
αvβ6 integrin receptor = experiment: Expression of αvβ6 integrin by cytofluorimetric analysis; type: cell-based, human
Description: (§1) Expression of αvβ6 integrins was determined by cytofluorimetric analysis. Human NSCLC A549 and H1975 cells, either grown in standard conditions or exposed to TGFβ treatment, were detached from the substrate using Accutase® to minimize the exposure of the extracellular membrane proteins to the enzymatic activity of trypsin. The cells were then incubated with primary antibodies, in the absence of membrane permeabilization. The cytofluorimetric procedures ensured quantification of the αvβ6 integrin receptor protruding outside the cells. […] These percentages increased to 66% of the parental population in A549 cells and to 55% in H1975, when the cells were exposed to TGFβ for 48 h (Figure 2B,D). […] In addition, we evaluated αvβ6 integrin expression on human melanoma cells (SSM2c, Figure S4A) and murine fibroblasts (L929, Figure S5A), whereas expression of the αvβ3 integrin receptor in these cells had been previously evaluated.
(§2) A549, L929, and K562 cells were allowed to grow in standard conditions; in several experiments, A549 cells were grown in the presence or in the absence of recombinant human TGFβ (10 ng/mL) (#11343160 Immunotools Friesoythe Germany). […] After extensive washes using cytofluorimetric buffer, cells were analyzed using a BD FACSCanto™ flow cytometry system (BD Bioscience, Eysins, Switzerland).

αvβ3 integrin [1] = experiment: Expression of αvβ3 integrin by cytofluorimetric analysis; type: cell-based, human
Description: as §1
as §2, with “Switzerland). […]” for “Switzerland).”

[2] = tested on: tumor spheroids of TGFβ-treated A549 cells and murine L929 fibroblasts; experiment: Inhibition of 3D tumor spheroid growth; type: cell-based, human; conditions: 5 µM, 72 h, vs untreated spheroids
Description: Heterogeneous spheroids of tumor cells and fibroblasts were generated using the hanging drop technique to mimic the complex three-dimensional environment of tumor tissues. […] Next, the fluorescence intensities associated with each cell population were analyzed as previously described.
Hanging drop tumor spheroids were prepared starting from 1:1 mixed cell population (1000 cells/25μL) of TGF𝛽-treated A549 cells and murine L929 fibroblasts. […] (C) Quantitative analysis of inhibition of 3D growth and (D) 3D spheroid internalization of the compounds after 72 h exposure. Data are representative of three independent experiments (n = 6) and expressed as means ± SEM. * p < 0.05 vs. untreated spheroids.
A549 cells, exposed for 48 h to TGFβ treatment, were mixed in a 1:1 ratio with murine L929 fibroblast (40,000/mL) in order to obtain 3D multicellular tumor spheroids (MCTS) resembling cellular heterogenicity of the neoplastic lesion. […] After one week, multicellular tumor spheroids were completely formed. Tumor spheroids were next used in different experimental procedures. […] For 3D growth inhibition, spheroids were placed on 2% agarose coated dishes in complete medium containing the different treatments at 5 µM concentration. Spheroid areas were analysed and compared to time 0 and used to evaluate the inhibition of 3D growth (yellow lines). Images of all spheroids were taken daily using the EVOS XL Core Imaging System with a 10x objective (Thermofisher Scientific, Waltham, MA, USA ). All images were analysed using the open-source software ImageJ (1.52a, National Institutes of Health, Bethesda, MD, USA).

A549 cells [3] = experiment: Inhibition of A549 cell adhesion to vitronectin; type: cell-based, human; conditions: A549 cells and TGFβ-treated A549 cells
Description: The highest levels of inhibition in A549 cells were registered with compounds 1 and 2, which were able to inhibit more than 50% adhesion in TGFβ-treated cells even at concentrations of 1 μM, a percentage that raised to 70% when these compounds were tested at 5 μM. […] Moreover, high levels of inhibition were registered in H1975 cells with compounds 1–3 that reached a minimum of 50% inhibition of adhesion in TGFβ-treated cells at 1 μM. These percentages increased to 70% when the compounds were tested at 5 μM. […] As already mentioned, the expression of αvβ3 integrins in A549 cells was reduced after exposure to TGFβ. Since αvβ3 integrins are one of the most avid receptors for vitronectin (VN), we investigated whether compounds 1–4 were able to inhibit A549 cell adhesion to VN. We discovered that, in A549 cells and in TGFβ-treated A549 cells, cell adhesion to vitronectin was not inhibited by the three different conjugated compounds nor by compound 4 (Figure S2E); this lack of efficacy is probably due to the lower binding affinity of the integrin ligand towards the αvβ3 integrin receptors.
2. […]
Figure S2. […] The inhibitory activity was calculated as the percentage of cell adhesion to VN in untreated cells and was expressed as means ± SEM. […]

[4] = tested on: tumor spheroids of TGFβ-treated A549 cells and murine L929 fibroblasts; experiment: Tumor spheroid 2D flat surface migration and growth; type: cell-based, human; conditions: 5 µM, fibronectin-coated flat surface
Description: Heterogeneous spheroids of tumor cells and fibroblasts were also used to evaluate the ability of the compounds to inhibit 2D flat surface migration and growth once the spheroids were allowed to attach to a suitable surface (Figure 8).
Hanging drop tumor spheroids were allowed to spread on a 2D fibronectin-coated flat surface. […] Data are representative of three independent experiments (n = 6) and expressed as means ± SEM. * p < 0.05 vs. untreated spheroids.
A549 cells, exposed for 48 h to TGFβ treatment, were mixed in a 1:1 ratio with murine L929 fibroblast (40,000/mL) in order to obtain 3D multicellular tumor spheroids (MCTS) resembling cellular heterogenicity of the neoplastic lesion. […] After one week, multicellular tumor spheroids were completely formed. Tumor spheroids were next used in different experimental procedures. We evaluated 2D flat surface inhibition of migration and growth, and the inhibition of 3D growth. For 2D flat surface migration and growth inhibition assays, the spheroids were placed on regular culture dishes and allowed to spread and grow in complete medium containing different compounds at 5 µM concentration. The areas of cell spreading were used as parameters for migration (red lines), while the areas of the spheroid core were used as parameters for 2D growth (yellow lines). For 3D growth inhibition, spheroids were placed on 2% agarose coated dishes in complete medium containing the different treatments at 5 µM concentration. Spheroid areas were analysed and compared to time 0 and used to evaluate the inhibition of 3D growth (yellow lines). Images of all spheroids were taken daily using the EVOS XL Core Imaging System with a 10x objective (Thermofisher Scientific, Waltham, MA, USA ). All images were analysed using the open-source software ImageJ (1.52a, National Institutes of Health, Bethesda, MD, USA).

A549 cells [5] = experiment: Inhibition of A549 cell adhesion to fibronectin; type: cell-based, human
Description: (§3) To verify whether conjugates 1–3 were able to bind the integrin receptor efficiently and compete with the receptor’s natural ligand (fibronectin) for the binding site, we performed an inhibition of adhesion assay. In this assay, the biological effects of the three conjugated compounds were compared to the inhibitory ability of the unconjugated ligand 4. Inhibition of A549 and H1975 cell adhesion to fibronectin was determined in both untreated and TGFβ-treated cells. The assay was carried out with increasing concentrations of compounds 1–3 and unconjugated cyclic peptidomimetic 4. […]
(§4) Figure 3 Inhibition of A549 (A,B) and H1975 (C,D) cell adhesion to FN (10 μg/mL) in the presence of compounds 1–3, or c(AmpLRGDL) 4 (2 h). […] The inhibitory activity was calculated as the percentage of cell adhesion to FN in untreated cells and was expressed as mean ± SEM. […]
(§5) 96-well plates were coated with fibronectin (10 µg/mL) (sc-29011 SantaCruz, D.B.A., Milano, Italia) by overnight incubation at 4 °C. […] Next, A549 cells were washed by centrifugation with PBS, counted, and suspended in serum-free medium at 0.6 × 10^6 cells/mL. […] After 2 h of incubation at […], cells were permeabilized with 50 µL of DMSO (C6164, Sigma-Aldrich Merk Life Science S.r.l. Milano, Italy) and plates were examined at 550 nm in a counter BioRad (550 Microplate Reader, BioRad, Milano, Italy). […]

αvβ6 integrin = tested on: αvβ6 integrin; design: method as in PMID 32634263; conditions: cited from earlier work
αvβ3 integrin [6] = tested on: αvβ3 integrin; design: method as in PMID 32634263; conditions: isolated integrin; cited from earlier work
H1975 cells = experiment: Inhibition of H1975 cell adhesion to fibronectin; type: cell-based, human; conditions: untreated and TGFβ-treated, increasing concentrations
Description: as §3, §4, §5

[7] = tested on: α-smooth muscle actin (α-SMA); experiment: α-smooth muscle actin protein expression, Western blot; type: cell-based, human; conditions: TGFβ-treated A549 cells, 5 μM, 24 h
Description: Data are expressed as means ± SEM of fold increment compared to untreated cells normalized to α-tubulin.
Western blot analysis was performed on whole-cell lysates of A549 cells, exposed for 48 h to TGFβ treatment and subsequently exposed to 5 µM concentrations of different compounds. After 24 h incubation, media were rapidly removed and cell monolayers were lysed as previously described in RIPA lysis buffer, with the addition of proteinase inhibitor cocktail (04693124001 Roche Merk Life Science S.r.l., Milano, Italy) for 30 min in ice [35]. Protein content was quantified, and forty-fifty micrograms of total proteins were separated on Bolt® Bis-Tris Plus gels 4–12% (Life Technologies, Monza, Italy). Fractionated proteins were transferred from the gel to a PVDF nitrocellulose membrane using iBlot 2 system (Life Technologies, Monza, Italy). Membranes were blocked for 5 min at room temperature, with EveryBlot Biorad blocking buffer (Life Technologies, Monza, Italy). […] The protein bands were analyzed by the Odyssey Infrared Imaging System (Lycor Bioscience) using software for protein quantification. […]

TGFβ-treated A549 cells = experiment: cells; type: cell-based, human; conditions: 24 h
Description: A549 cell viability was assessed using MTT (3-(4,5-dimethylthiazol-2-yl)-2,5-diphenyltetrazolium bromide) tetrazolium reduction assay (M5655, Sigma Aldrich, Milan, Italy), as described in [58]. Briefly, A549 cells were treated for 48 h in complete medium with TGFβ (10 ng/mL). Next, cells (2.5 × 10^3) were plated into 96-multiwell plates in 100 µL of complete medium. After adhesion, the compounds were added to the medium at different concentrations. After 24 h exposure, the medium was replaced with 100 µL MTT reagent in each well, and plates were incubated at 37 °C. After 2 h, MTT was removed, and the blue MTT–formazan product was solubilized with dimethyl sulfoxide (DMSO, Sigma Aldrich). The absorbance of the formazan solution was read at 595 nm using the microplate reader (Bio-Rad, Milan, Italy). Inhibition of cell proliferation was calculated by the IC50 calculator (AAT Bioquest, Inc., Pleasanton, CA, USA, https://www.aatbio.com/ (accessed on 1 July 2022)).

human recombinant VEGFR2 = target: T1, human recombinant VEGFR2 (Homo sapiens, UniProt P35968); experiment: VEGFR2 tyrosine kinase inhibition, radiometric (Eurofins); type: biochemical; conditions: nine-point concentration-response curve, radiometric detection; read-out: IC50, inhibition of VEGFR2 phosphorylation
T1 construct: purchased Eurofins (Cerep laboratories; KinaseProfiler, IC50 Profiler service)
Description: Inhibition of receptor phosphorylation was measured by a radiometric detection method. IC50 values were determined from a nine-point concentration−response curve generated using the standard assay conditions for the target.

T1 sequence (P35968 20-1356): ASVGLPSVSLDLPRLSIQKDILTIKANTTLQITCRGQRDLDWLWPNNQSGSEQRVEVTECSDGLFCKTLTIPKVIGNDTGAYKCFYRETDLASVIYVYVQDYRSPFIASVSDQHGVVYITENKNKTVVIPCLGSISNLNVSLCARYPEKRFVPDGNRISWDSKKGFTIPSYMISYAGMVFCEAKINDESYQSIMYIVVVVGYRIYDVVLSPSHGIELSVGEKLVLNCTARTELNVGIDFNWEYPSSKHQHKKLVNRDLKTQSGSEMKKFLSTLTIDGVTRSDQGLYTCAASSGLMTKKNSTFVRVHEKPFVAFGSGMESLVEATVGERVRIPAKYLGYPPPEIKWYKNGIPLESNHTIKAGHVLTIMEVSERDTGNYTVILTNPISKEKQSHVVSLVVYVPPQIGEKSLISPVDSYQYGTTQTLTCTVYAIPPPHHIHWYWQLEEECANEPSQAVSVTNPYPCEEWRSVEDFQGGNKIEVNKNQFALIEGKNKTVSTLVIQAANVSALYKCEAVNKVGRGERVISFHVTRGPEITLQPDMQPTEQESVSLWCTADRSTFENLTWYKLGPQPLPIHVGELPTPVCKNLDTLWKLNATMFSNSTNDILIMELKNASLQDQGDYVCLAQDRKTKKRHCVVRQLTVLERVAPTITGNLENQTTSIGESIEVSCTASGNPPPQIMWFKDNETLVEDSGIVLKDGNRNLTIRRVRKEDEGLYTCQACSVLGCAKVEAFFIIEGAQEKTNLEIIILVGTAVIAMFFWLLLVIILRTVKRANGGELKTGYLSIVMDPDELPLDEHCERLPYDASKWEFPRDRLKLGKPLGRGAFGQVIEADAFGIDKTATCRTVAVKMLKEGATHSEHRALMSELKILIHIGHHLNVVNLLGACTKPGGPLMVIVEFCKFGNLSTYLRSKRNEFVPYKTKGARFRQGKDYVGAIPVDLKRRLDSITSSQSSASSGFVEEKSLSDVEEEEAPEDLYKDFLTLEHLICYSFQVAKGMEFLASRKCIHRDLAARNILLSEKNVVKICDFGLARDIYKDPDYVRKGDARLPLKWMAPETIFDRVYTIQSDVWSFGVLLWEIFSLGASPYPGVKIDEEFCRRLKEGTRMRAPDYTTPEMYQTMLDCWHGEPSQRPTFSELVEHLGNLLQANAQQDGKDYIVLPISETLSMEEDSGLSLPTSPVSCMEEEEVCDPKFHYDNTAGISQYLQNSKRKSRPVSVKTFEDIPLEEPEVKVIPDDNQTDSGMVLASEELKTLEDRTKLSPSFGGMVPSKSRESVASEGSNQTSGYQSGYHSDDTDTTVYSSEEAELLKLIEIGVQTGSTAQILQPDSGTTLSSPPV

For “TGFβ: recombinant human TGFβ (10 ng/mL) used to induce EMT and αvβ6 expression”, the “cell population expressing αvβ6 integrin receptor” value (αvβ6 integrin receptor; A549 cells exposed to TGFβ (10 ng/mL) for 48 h) was 66%, the “cell population expressing αvβ6 integrin receptor” value (αvβ6 integrin receptor; H1975 cells exposed to TGFβ (10 ng/mL) for 48 h) was 55% and the αvβ3 integrin expression (αvβ3 integrin [1]; A549 cells exposed to TGFβ (10 ng/mL) 48 h, 72% without TGFβ) was 32%. For the same compound, the αvβ3 integrin expression (αvβ3 integrin [1]; H1975 cells, unaffected by TGFβ treatment) was 98%.
With c(AmpLRGDL) [compound 4] the “inhibition of 3D spheroid growth” value [2] was “did not induce a significant reduction; also recorded: transient reduction”, the “inhibition of cell adhesion to vitronectin” value (A549 cells [3]) was “not inhibited” and the “2D flat surface migration of tumor spheroids” value [4] was “did not inhibit cell growth and migration; also recorded: considerably weaker effect”. For the same compound, the “2D growth of tumor spheroids (spheroid core)” value [4] was “did not inhibit cell growth and migration; also recorded: very weak inhibition”, the “level of inhibition of cell adhesion to fibronectin” value (A549 cells [5]; even TGFβ-treated, all concentrations tested) was at most 50% and the “inhibition of cell adhesion to fibronectin (in words)” value (A549 cells [5]; untreated and TGFβ-treated, increasing concentrations) was “weak concentration dependence”. For the same compound, the IC50 (αvβ6 integrin; isolated integrin) was 8.3 ± 0.4 nM, the “selectivity IC50(αvβ3)/IC50(αvβ6)” value (αvβ6 integrin; isolated integrins) was 255 and the IC50 (αvβ3 integrin [6]) was 2120 ± 266 nM. The “inhibition of cell adhesion to fibronectin (in words)” value (H1975 cells) was “weak concentration-dependence” and the α-SMA protein expression [7] was “not able to affect”.
`COC(=O)c1ccc2c(c1)NC(=O)/C2=C(\Nc1ccc(N(C)C(=O)CN2CCN(CCCCNC(=O)CCc3cn(CCCCCC(=O)N4C[C@@H]5C[C@H]4C(=O)N[C@@H](CC(C)C)C(=O)N[C@@H](CCCNC(=N)N)C(=O)NCC(=O)N[C@@H](CC(=O)O)C(=O)N[C@@H](CC(C)C)C(=O)N5)nn3)CC2)cc1)c1ccccc1` [compound 1] showed an IC50 (TGFβ-treated A549 cells) of 9500 nM and an IC50 (human recombinant VEGFR2) of 6 nM.
In the case of `COC(=O)c1ccc2c(c1)NC(=O)/C2=C(\Nc1ccc(N(C)C(=O)CN2CCN(CCOCCOCCOCc3cn(CCCCCC(=O)N4C[C@@H]5C[C@H]4C(=O)N[C@@H](CC(C)C)C(=O)N[C@@H](CCCNC(=N)N)C(=O)NCC(=O)N[C@@H](CC(=O)O)C(=O)N[C@@H](CC(C)C)C(=O)N5)nn3)CC2)cc1)c1ccccc1` [compound 2], the IC50 (TGFβ-treated A549 cells) is reported as 10100 nM.
